Assay [1] deals with MDA-MB-435S. As to the kind of experiment: MTT cytotoxicity test on MDA-MB-435S. Format: cell-based, human. The settings on record: continuous incubation over 72 h.
The test system of assay [2] is NCI-H460. The assay can be described thus: MTT cytotoxicity test on NCI-H460. Format: cell-based, human. To be noted: continuous incubation over 72 h. On the technique in general: Formazan colour is commonly taken as a measure of viable cells.
Assay [3] relates to MDA-MB-231. The assay can be described thus: MTT cytotoxicity test on MDA-MB-231. To be noted: continuous incubation over 72 h. Format: cell-based, human.
The test system of assay [4] is LNCaP. The assay can be described thus: MTT cytotoxicity test on LNCaP. Format: cell-based, human. The settings on record: continuous incubation over 72 h.
Assay [5] has as its system SK-MES-1. The assay can be described thus: MTT cytotoxicity test on SK-MES-1. To be noted: continuous incubation over 72 h. Format: cell-based, human.
For assay [6], the system named is SW 620. As to the kind of experiment: MTT cytotoxicity test on SW 620. Format: cell-based, human. The settings on record: continuous incubation over 72 h.
Assay [7] relates to BxPC3. The assay can be described thus: MTT cytotoxicity test on BxPC3. Format: cell-based, human. To be noted: continuous incubation over 72 h.
The subject of assay [8] is COLO 205. The assay can be described thus: MTT cytotoxicity test on COLO 205. Format: cell-based, human. To be noted: continuous incubation over 72 h.
Assay [9] deals with UM-UC-3. The assay can be described thus: MTT cytotoxicity test on UM-UC-3. Format: cell-based, human. The settings on record: continuous incubation over 72 h.
Assay [10] has as its system HepG2. The assay can be described thus: MTT cytotoxicity test on HepG2. Format: cell-based, human. To be noted: continuous incubation over 72 h.
Assay [11] has as its system MES-SA. The assay can be described thus: MTT cytotoxicity test on MES-SA. The settings on record: continuous incubation over 72 h. Format: cell-based, human.
The test system of assay [12] is 293. The assay can be described thus: MTT cytotoxicity test on 293. To be noted: continuous incubation over 72 h. Format: cell-based, human.
In assay [13] the test system is PANC-1. As to the kind of experiment: MTT cytotoxicity test on PANC-1. Format: cell-based, human. To be noted: continuous incubation over 72 h.
The test system of assay [14] is SK-OV-3. As to the kind of experiment: MTT cytotoxicity test on SK-OV-3. The settings on record: continuous incubation over 72 h. Format: cell-based, human.
The test system of assay [15] is A549. The assay can be described thus: MTT cytotoxicity test on A549. Format: cell-based, human. The settings on record: continuous incubation over 72 h.
In assay [16] the test system is JURKAT A3. The assay can be described thus: Cytotoxicity test on JURKAT A3 (nonadherent cells). Format: cell-based, human. The settings on record: continuous incubation over 72 h, test MTT. An excerpt: (§1) MTT assay is a colorimetric assay used to measure proliferation, viability and cytotoxicity of cells. It consists in decomposition of a yellow tetrazolium salt MTT (4,5-dimethyl-2-thiazolyl)-2,5-diphenyltetrazolium bromide) to the water-insoluble purple dye formazan by mitochondrial enzyme succinate-tetrazolium reductase 1. MTT reduction occurs only in living cells. Data analysis consists in determining IC50 concentration of the protein (in ng/ml), at which the 50% reduction in the number of cells occurs in the population treated compared to control cells. Results were analyzed using GraphPad Prism 5.0 software. The test was performed according to the literature descriptions (Celis, J E, (1998). Cell Biology, a Laboratory Handbook, second edition, Academic Press, San Diego; Yang, Y., Koh, L W, Tsai, J H., (2004); Involvement of viral and chemical factors with oral cancer in Taiwan, Jpn J Clin Oncol, 34 (4), 176-183).
Cell culture medium was diluted to a defined density (10^4-10^5 cells per 100 μl). […] After stirring, the absorbance was measured at 570 nm (reference filter 690 nm).
EZ4U (Biomedica) test was used for testing cytotoxic activity of the proteins in nonadherent cell lines. […] On this basis IC50 values were determined (as an average of two independent experiments) using the GraphPad Prism 5 software. […]

For assay [17], the system named is Caki-1. The assay can be described thus: MTT cytotoxicity test on Caki-1. Format: cell-based, human. To be noted: continuous incubation over 72 h.
Assay [18] concerns MES-SA/Mx2. As to the kind of experiment: MTT cytotoxicity test on MES-SA/Mx2. Format: cell-based, human. To be noted: continuous incubation over 72 h.
Assay [19] relates to MCF10A. As to the kind of experiment: MTT cytotoxicity test on MCF10A. Format: cell-based. To be noted: continuous incubation over 72 h.
The test system of assay [20] is PLC/PRF/5. The assay can be described thus: MTT cytotoxicity test on PLC/PRF/5. Format: cell-based, human. To be noted: continuous incubation over 72 h.
In assay [21] the test system is OV-CAR-3. As to the kind of experiment: MTT cytotoxicity test on OV-CAR-3. Format: cell-based, human. The settings on record: continuous incubation over 72 h.
The test system of assay [22] is A498. The assay can be described thus: MTT cytotoxicity test on A498. Format: cell-based, human. The settings on record: continuous incubation over 72 h.
Assay [23] concerns MES-SA/Dx5. As to the kind of experiment: MTT cytotoxicity test on MES-SA/Dx5. Format: cell-based, human. To be noted: continuous incubation over 72 h.
Assay [24] deals with HT-1080. The assay can be described thus: MTT cytotoxicity test on HT-1080. Format: cell-based, human. To be noted: continuous incubation over 72 h.
For assay [25], the system named is SK-HEP-1. The assay can be described thus: MTT cytotoxicity test on SK-HEP-1. Format: cell-based, human. The settings on record: continuous incubation over 72 h.
Assay [26] deals with HCT116. As to the kind of experiment: MTT cytotoxicity test on HCT116. Format: cell-based, human. The settings on record: continuous incubation over 72 h.
The subject of assay [27] is Panc03.27. As to the kind of experiment: MTT cytotoxicity test on Panc03.27. Format: cell-based, human. To be noted: continuous incubation over 72 h.
In assay [28] the test system is MCF-7. The assay can be described thus: MTT cytotoxicity test on MCF-7. Format: cell-based, human. To be noted: continuous incubation over 72 h.
In assay [29] the test system is HT 144. As to the kind of experiment: MTT cytotoxicity test on HT 144. Format: cell-based, human. To be noted: continuous incubation over 72 h.
The subject of assay [30] is HUV-EC-C. The assay can be described thus: MTT cytotoxicity test on HUV-EC-C (healthy control cells). Format: cell-based, human. To be noted: continuous incubation over 72 h.
Source text: as §1
Cell culture medium was diluted to a defined density (10^4-10^5 cells per 100 μl). Then 100 μl of appropriately diluted cell suspension was applied to a 96-well plate in triplicates. […] After stirring, the absorbance was measured at 570 nm (reference filter 690 nm). […]

Assay [31] concerns human liver cancer HepG2. As to the kind of experiment: Liver cancer model, Experiment A: HepG2 xenograft. To be noted: 20 mg/kg i.p. Format: in vivo, Crl:SHO-PrkdcscidHrhr mice. The method, then:
(§2) Tumor size was measured using electronic calliper, tumor volume was calculated using the formula: (a^2×b)/2, where a=shorter diagonal of the tumor (mm) and b=longer diagonal of the tumor (mm). Inhibition of tumor growth was calculated using the formula:
(§3) TGI[%](Tumor growth inhibition)=(WT/WC)×100−100%
(§4) wherein WT is the average tumor volume in the treatment group, and WC is the average tumor volume in the control group.
On day 0 Crl:SHO-Prkdc^scidHr^hr mice were grafted subcutaneously (s.c.) in the right flank region with 7×10^6 of HepG2 cells suspended in 0.1 ml of the 3:1 mixture HBSS buffer:Matrigel using syringe with a 0.5×25 mm needle (Bogmark). When tumors reached the size of 64-529 mm^3 (day 25), mice were randomized to obtain the average size of tumors in the group of −230 mm^3 and assigned to treatment groups. The treatment groups were administered with the preparations of fusion protein of the invention of Ex. 16^b (80 mg/kg) and rhTRAIL114-281 (50 mg/kg) as a comparison and reference compound 5-FU (5-Fluorouracil, Sigma-Aldrich) (20 mg/kg). The preparations were administered intravenously (i.v.) six times every second day, 5-FU was applied intraperitoneally (i.p.). The control group received formulation buffer.
When the therapeutic group reached the average tumor size of ˜1000 mm^3, mice were sacrificed by cervical dislocation.

Assay [32] has as its system human liver cancer PLC/PRF/5. As to the kind of experiment: Liver cancer model, Experiment B: PLC/PRF/5 xenograft. Format: in vivo, Crl:SHO-PrkdcscidHrhr mice. To be noted: 30 mg/kg i.p., schedule (q1dx5)×2, 43th day. The method, then:
as §2, §3, §4
On day 0 Crl:SHO-Prkdc^scidHr^hr mice were grafted subcutaneously (s.c.) in the right flank region with 7×10^6 of PLC/PRF/5 cells suspended in 0.1 ml of the 3:1 mixture HBSS buffer:Matrigel using syringe with a 0.5×25 mm needle (Bogmark). When tumors reached the size of 72-536 mm^3 (day 29), mice were randomized to obtain the average size of tumors in the group of ˜205 mm^3 and assigned to treatment groups. The treatment groups were administered with the preparations of fusion protein of the invention of Ex. 16^b (50 mg/kg) and rhTRAIL114-281 (50 mg/kg) as a comparison and reference compound 5-FU (5-Fluorouracil, Sigma-Aldrich) (30 mg/kg). The preparations were administered intravenously (i.v.) six times every second day, except 5-FU, which was applied intraperitoneally (i.p.) in the schedule (q1dx5)×2. The control group received formulation buffer.
When an experimental group reached the average tumor size of ˜1000 mm^3, mice were sacrificed by cervical dislocation.

Assay [33] concerns pancreatic carcinoma MIA PaCa-2. As to the kind of experiment: Pancreas cancer model, Experiment B: MIA PaCa-2 xenograft. Format: in vivo, Crl:SHO-PrkdcscidHrhr mice. The settings on record: 50 mg/kg i.p. six times every second day, 61th day. The method, then: as §2, §3, §4
On day 0 Crl:SHO-Prkdc^scidHr^hr mice were grafted subcutaneously (s.c.) in the right flank region with 5×10^6 of MIA PaCa-2 cells suspended in 0.1 ml of 3:1 mixture HBSS buffer:Matrigel using syringe with a 0.5×25 mm needle (Bogmark). When tumors reached the size of 60-398 mm^3 (day 20), mice were randomized to obtain the average size of tumors in the group of ˜170 mm^3 and assigned to treatment groups. The treatment groups were administered with the preparations of fusion protein of the invention of Ex. 16^b (50 mg/kg) and rhTRAIL114-281 (50 mg/kg) as a comparison and reference compound gemcytabine (Gemzar, Eli Lilly) (50 mg/kg). The preparations were administered intravenously (i.v.) six times every second day, gemcytabine was applied intraperitoneally (i.p.) in the same schedule. The control group received formulation buffer.
When a therapeutic group reached the average tumor size of ˜1000 mm^3, mice were sacrificed by the cervical dislocation.

These results are taken from patent US20140377216A1, “ANTICANCER FUSION PROTEIN” (ADAMED SP. Z.O.O., priority 2011, published 2014).

Where “and” joins values, the source holds several entries; their conditions need not be identical. Identical values can stand only once. Where only a bound is given, the exact number is not on record here.

Usually IC50 stands for the concentration at which inhibition is half-maximal. Low values mean inhibition by little substance, high ones a need for much substance. Regarding “rhTRAIL95-281: TRAIL comparator protein as labelled in cytotoxicity Tables 4-4d (hTRAIL fragment 95-281)”, the IC50 in assay [1] was >2 µg/mL; in assay [2], 5.889 µg/mL; in assay [2] (listed as TRAIL 95-281), 0.438 µg/mL; in assay [3], >2 µg/mL; in assay [4], 2.052 µg/mL; in [5], 0.03935 µg/mL. The IC50 in assay [5] (listed as TRAIL 95-281) was 0.1007 µg/mL; in [6], >2 µg/mL; in assay [7], 0.06471 µg/mL and 0.0606 µg/mL; in assay [8], 0.05902 µg/mL; in assay [9], 2.242 µg/mL; in [10] (listed as TRAIL 95-281), >2 µg/mL. The IC50 is >10 µg/mL in assay [10] (listed as rhTRAIL 95-281); >10 µg/mL in assay [11]; >2 µg/mL in [11] (listed as TRAIL 95-281); >10 µg/mL in [12]; >10 µg/mL in assay [13]; >2 µg/mL in [13] (listed as TRAIL 95-281). Further, the IC50 in assay [14] is >2 µg/mL; in assay [15], >10 µg/mL; in [15] (listed as TRAIL 95-281) it was >2 µg/mL; in [16] it was >10 µg/mL; in assay [17], 0.01342 µg/mL; in assay [18], 0.03895 µg/mL. Further, the 50% inhibitory concentration (IC50) is >10 µg/mL in [19]; >2 µg/mL in assay [19] (listed as TRAIL 95-281); >9 µg/mL in assay [20]; >2 µg/mL in [20] (listed as TRAIL 95-281); 0.963 µg/mL in assay [21] (listed as TRAIL 95-281); 0.963 µg/mL in assay [21] (listed as rhTRAIL 95-281). For the same molecule, the IC50 in assay [22] is 1.611 µg/mL; in [23], 0.02915 µg/mL; in assay [23] (listed as TRAIL 95-281), 0.02759 µg/mL; in assay [24], >2 µg/mL; in assay [25], >2 µg/mL; in assay [26], 7.557 µg/mL. Also, the IC50 in assay [26] (listed as TRAIL 95-281) is >2 µg/mL; in assay [27], 0.315 µg/mL; in assay [28] it was >2 µg/mL; in [29] (listed as TRAIL 95-281), 1.134 µg/mL; in assay [29] (listed as rhTRAIL 95-281), 1.73 µg/mL; in [30], >2 µg/mL.
Consider `O=c1[nH]cc(F)c(=O)[nH]1` [5-FU, 5-Fluorouracil], for which, in [31], the “efficacy against HepG2 tumors” value is “didn't show any efficacy”. Besides, the “TGI (tumor growth inhibition) relative to the control” value in assay [32] is reported as 32.2%.
In the case of `Nc1ccn([C@@H]2O[C@H](CO)[C@@H](O)C2(F)F)c(=O)n1` [gemcytabine], in assay [33], the “TGI (tumor growth inhibition) relative to the control” value was found to be 42.6%.
